Laboratory results from publication PMC6444592, “Citrullination of HP1γ chromodomain affects association with chromatin” (Epigenetics & Chromatin, 2019).

How the values were obtained:
mESCs [1] = assay: live-cell single-particle tracking, 13.5 ms, jump distance analysis; assay type: cell-based, mouse; conditions: 13.5 ms
Protocol: (§1) Parental E14 mouse embryonic stem cell (mESC) line was profiled by transcriptome analysis, qPCR and potency assays and was routinely tested for mycoplasma contamination and tested negative. Cells were cultured in DMEM (Gibco) supplemented with 15% standard FCS (Gibco), 0.1 mM non-essential amino acids (Gibco), 1% penicillin/streptomycin, 2 mM L-glutamine (Gibco), 1 mM sodium pyruvate (Gibco), 0.1 mM β-mercaptoethanol (Life Technologies) and 10^6 units/l mLIF (ESGRO, Millipore). E14 cells were stored in incubators at 37 °C in 7.5% CO2 (100% humidity) and maintained in 0.1% gelatin coated 10-cm culture dishes with 1:6 passaging every 2 days. Media was changed on a daily basis. E14 ESCs expressing mouse mEos3.2–HaloTag-HP1 fusion proteins were generated by transfecting appropriate pSB7 plasmids into E14 cells using Lipofectamine 2000 transfection reagent (Invitrogen), followed by selection in 600 µg/ml geneticin (Life Technologies). After 2 weeks of geneticin selection, cells were sorted using a Sony SH800S cell sorter for the expression of mEos3.2. Differentiation of ESCs was induced by LIF withdrawal. ESCs cultured in complete ES cell media (+ LIF) were trypsinised and washed twice in 1x PBS to remove residual LIF, seeded into ES cell media without LIF and incubated for 24, 48 or 72 h.
An IX73 Olympus inverted microscope was used with circularly polarised laser beams aligned and focused at the back aperture of an Olympus 1.40 NA 100 × oil objective (Universal Plan Super Apochromat, 100 × , NA 1.40, UPLSAPO100XO/1.4). Continuous wavelength diode laser light sources used include a 561-nm (Cobolt, Jive 200, 200 mW) and a 405-nm laser (Stradus, Toptica, 405–100, 100 mW). Oblique angle illumination was achieved by aligning the laser off axis such that the emergent beam at the sample interface was near-collimated and incident at an angle slightly less than the critical angle θc ~ 67° for a glass/water interface. This generated a ~ 50 μm diameter excitation footprint. The power of the collimated beams at the back aperture of the microscope was 10 kW/cm^2 and 10–100 W/cm^2 for the 561-nm and 405-nm laser beams, respectively. The lasers were reflected by dichroic mirrors (Semrock, Di01-R405/488/561/635). The fluorescence emission was collected through the same objective and then further filtered using a combination of long-pass and band-pass filters (BLP01-561R and FF01-587/35 for 561 nm excitation). The emission signal was projected onto an EMCCD (Photometrics, Evolve 512 Delta) with an electron multiplication gain of 250 ADU/photon operating in a frame transfer mode.
mESCs expressing mEos3.2–HaloTag-tagged HP1γ were passaged 2 days before imaging onto 35-mm glass bottom dishes No 1.0 (MatTek Corporation P35G-1.0-14-C Case) in phenol red-free serum and LIF conditions, if not stated otherwise. Just before single-particle tracking (SPT) imaging experiments, cells were labelled with 0.5 nM HaloTag–JF549 ligand for at least 15 min, followed by two washes in PBS and a 30-min incubation at 37 °C in media, before imaging the cells in fresh phenol red-free serum and LIF conditions. Cells were under-labelled to prevent overlap of fluorophores during SPT. Using 561 nm excitation, fluorescence images were collected as movies of 10,000 frames at 13.5 ms or 1000 to 5000 frames at 500 ms exposure. For live-cell tracking, data were collected for three biological replicates on separate dishes and the average values compared.
Live-cell 13.5-ms single-molecule traces were analysed using software that detects single-molecule trajectories from SPT movies. Briefly, the code detected puncta positions in each image frame using a brightness-weighted centroid after applying a band-pass filter to remove low-frequency background and high-frequency noise from the image data. To track the HP1 single molecules, only fluorescent puncta smaller than 3 pixels and with a signal to noise greater than 8 were analysed. […]

mESCs [2] = assay: HP1γ foci formation, fluorescence imaging of mEos3.2; assay type: cell-based, mouse; conditions: +/− LIF 72 h
Protocol: as §1, with “After 2 weeks of geneticin selection, cells were sorted using a Sony SH800S cell sorter for the expression of mEos3.2. Differentiation of ESCs was induced by LIF withdrawal. ESCs cultured in complete ES cell media (+ LIF) were trypsinised and washed twice in 1x PBS to remove residual LIF, seeded into ES cell media without LIF and incubated for 24, 48 or 72 h.” left out
An IX73 Olympus inverted microscope was used with circularly polarised laser beams aligned and focused at the back aperture of an Olympus 1.40 NA 100 × oil objective (Universal Plan Super Apochromat, 100 × , NA 1.40, UPLSAPO100XO/1.4). […] The fluorescence emission was collected through the same objective and then further filtered using a combination of long-pass and band-pass filters (BLP01-561R and FF01-587/35 for 561 nm excitation). […]

HP1γWT: full-length mouse HP1γ wild type, as GST or mEos3.2–HaloTag fusion protein
Diffusion coefficient, Bound (mESCs [1]; +LIF, replicate i): 0.100 µm2s-1 | Diffusion coefficient, Diffusing (mESCs [1]; +LIF, replicate i): 0.780 µm2s-1 | Percentage, Bound (mESCs [1]; +LIF, replicate i): 36.7% | Percentage, Diffusing (mESCs [1]; +LIF, replicate i): 63.3% | Diffusion coefficient, Bound (mESCs [1]; +LIF, replicate ii): 0.100 µm2s-1 | Diffusion coefficient, Diffusing (mESCs [1]; +LIF, replicate ii): 0.812 µm2s-1 | Percentage, Bound (mESCs [1]; +LIF, replicate ii): 30% | Percentage, Diffusing (mESCs [1]; +LIF, replicate ii): 70% | Diffusion coefficient, Bound (mESCs [1]; +LIF, replicate iii): 0.100 µm2s-1 | Diffusion coefficient, Diffusing (mESCs [1]; +LIF, replicate iii): 0.784 µm2s-1 | Percentage, Bound (mESCs [1]; +LIF, replicate iii): 32.4% | Percentage, Diffusing (mESCs [1]; +LIF, replicate iii): 67.6% | Diffusion coefficient, Bound (mESCs [1]; +LIF, replicate iv): 0.097 µm2s-1 | Diffusion coefficient, Diffusing (mESCs [1]; +LIF, replicate iv): 1.019 µm2s-1 | Percentage, Bound (mESCs [1]; +LIF, replicate iv): 49% | Percentage, Diffusing (mESCs [1]; +LIF, replicate iv): 51% | Diffusion coefficient, Bound (mESCs [1]; +LIF, replicate v): 0.089 µm2s-1 | Diffusion coefficient, Diffusing (mESCs [1]; +LIF, replicate v): 0.972 µm2s-1 | Percentage, Bound (mESCs [1]; +LIF, replicate v): 38.8% | Percentage, Diffusing (mESCs [1]; +LIF, replicate v): 61.2% | Percentage of molecules, diffusing (mESCs [1]; +LIF, mESCs, mean ± SD (n = 5–9)): 63% | diffusion rate, effect of LIF withdrawal (mESCs [1]; −LIF 72 h versus +LIF): no significant effect | Diffusion coefficient, Bound (mESCs [1]; −LIF, replicate i): 0.082 µm2s-1 | Diffusion coefficient, Diffusing (mESCs [1]; −LIF, replicate i): 0.733 µm2s-1 | Percentage, Bound (mESCs [1]; −LIF, replicate i): 51.4% | Percentage, Diffusing (mESCs [1]; −LIF, replicate i): 48.6% | Diffusion coefficient, Bound (mESCs [1]; −LIF, replicate ii): 0.092 µm2s-1 | Diffusion coefficient, Diffusing (mESCs [1]; −LIF, replicate ii): 0.912 µm2s-1 | Percentage, Bound (mESCs [1]; −LIF, replicate ii): 51% | Percentage, Diffusing (mESCs [1]; −LIF, replicate ii): 49% | Diffusion coefficient, Bound (mESCs [1]; −LIF, replicate iii): 0.100 µm2s-1 | Diffusion coefficient, Diffusing (mESCs [1]; −LIF, replicate iii): 1.037 µm2s-1 | Percentage, Bound (mESCs [1]; −LIF, replicate iii): 31.3% | Percentage, Diffusing (mESCs [1]; −LIF, replicate iii): 68.7% | Diffusion coefficient, Bound (mESCs [1]; −LIF, replicate iv): 0.100 µm2s-1 | Diffusion coefficient, Diffusing (mESCs [1]; −LIF, replicate iv): 1.007 µm2s-1 | Percentage, Bound (mESCs [1]; −LIF, replicate iv): 30.9% | Percentage, Diffusing (mESCs [1]; −LIF, replicate iv): 69.1% | Diffusion coefficient, Bound (mESCs [1]; −LIF, replicate v): 0.100 µm2s-1 | Diffusion coefficient, Diffusing (mESCs [1]; −LIF, replicate v): 0.930 µm2s-1 | Percentage, Bound (mESCs [1]; −LIF, replicate v): 27.9% | Percentage, Diffusing (mESCs [1]; −LIF, replicate v): 72.1% | foci formation, WT- versus R38/9A-expressing cells (mESCs [2]): no apparent difference
